Assay results as given in article PMC4965013, “Open Source Drug Discovery with the Malaria Box Compound Collection for Neglected Diseases and Beyond” (PLoS Pathogens, 2016).

Columns and labels:
[1] = test system: P. falciparum 3D7 trophozoites; experiment: Metabolomic fingerprint profiling LC-MS; type: cell-based, Plasmodium falciparum; design: UDP-D-glucose / ADP-D-glucose: unit not given here; conditions: for Acetyllysine / N-acetyl-L-ornithine / N-carbamoyl-L-aspartate / NADPH / dAMP / dCMP / dTDP / dTMP / dTTP / dihydroorotate / orotate / DLH / DLS/SDL/SID / PD / PEE / PVNF / 3-phosphoglycerate / ADP-D-glucose / ATP / CDP / D-sedoheptulose-1/7-phosphate / FAD / GMP / NAD+ / NADP+ / Octoluse Bisphosphate / Pyroglutamic acid / UDP-D-glucose / UDP-D-glucuronate / UDP-N-acetyl-glucosamine / UDP / UMP / UTP / a-ketoglutarate / citrate/isocitrate / cytidine / dATP / dGMP/AMP / fumarate / glucose-1/6-phosphate / glycerate / guanine / guanosine / hypoxanthine / indole / inosine / nicotinate / ornithine / phosphoenolpyruvate / pyruvate / ribose-phosphate / sarcosine/alanine / sn-glycerol-3-phosphate / succinate/methylmalonic acid / uridine / xanthosine: S2 Table Metabolomics; for Acetyllysine: metabolite Acetyllysine; for N-acetyl-L-ornithine: metabolite N-acetyl-L-ornithine; for N-carbamoyl-L-aspartate: metabolite N-carbamoyl-L-aspartate; for NADPH: metabolite NADPH; for dAMP: metabolite dAMP; for dCMP: metabolite dCMP; for dTDP: metabolite dTDP; for dTMP: metabolite dTMP; for dTTP: metabolite dTTP; for dihydroorotate: metabolite dihydroorotate; for orotate: metabolite orotate; for DLH: peptide DLH; for DLS/SDL/SID: peptide DLS/SDL/SID; for PD: peptide PD; for PEE: peptide PEE; for PVNF: peptide PVNF; for 3-phosphoglycerate: metabolite 3-phosphoglycerate; for ADP-D-glucose: metabolite ADP-D-glucose; for ATP: metabolite ATP; for CDP: metabolite CDP; for CDP / D-sedoheptulose-1/7-phosphate / GMP / Octoluse Bisphosphate / UDP / UMP / UTP / citrate/isocitrate / dGMP/AMP / fumarate / glucose-1/6-phosphate / glycerate / guanine / guanosine / inosine / pyruvate / sarcosine/alanine / succinate/methylmalonic acid / uridine / xanthosine: change in metabolite level after compound treatment; for D-sedoheptulose-1/7-phosphate: metabolite D-sedoheptulose-1/7-phosphate; for FAD: metabolite FAD; for GMP: metabolite GMP; for NAD+: metabolite NAD+; for NADP+: metabolite NADP+; for Octoluse Bisphosphate: metabolite Octoluse Bisphosphate; for Pyroglutamic acid: metabolite Pyroglutamic acid; for UDP-D-glucose: metabolite UDP-D-glucose; for UDP-D-glucuronate: metabolite UDP-D-glucuronate; for UDP-N-acetyl-glucosamine: metabolite UDP-N-acetyl-glucosamine; for UDP: metabolite UDP; for UMP: metabolite UMP; for UTP: metabolite UTP; for a-ketoglutarate: metabolite a-ketoglutarate; for citrate/isocitrate: metabolite citrate/isocitrate; for cytidine: metabolite cytidine; for dATP: metabolite dATP; for dGMP/AMP: metabolite dGMP/AMP; for fumarate: metabolite fumarate; for glucose-1/6-phosphate: metabolite glucose-1/6-phosphate; for glycerate: metabolite glycerate; for guanine: metabolite guanine; for guanosine: metabolite guanosine; for hypoxanthine: metabolite hypoxanthine; for indole: metabolite indole; for inosine: metabolite inosine; for 2_3-Diphosphoglyceric acid / 4-phosphopantothenate / 6-phospho-D-gluconate / FMN / IMP / Pyrophosphate / Sedoheptoluse bisphosphate / cyclic-AMP / glutathione disulfide / lactate / myo-inositol: metabolite level change after treatment; for nicotinate: metabolite nicotinate; for ornithine: metabolite ornithine; for phosphoenolpyruvate: metabolite phosphoenolpyruvate; for pyruvate: metabolite pyruvate; for ribose-phosphate: metabolite ribose-phosphate; for sarcosine/alanine: metabolite sarcosine/alanine; for sn-glycerol-3-phosphate: metabolite sn-glycerol-3-phosphate; for succinate/methylmalonic acid: metabolite succinate/methylmalonic acid; for uridine: metabolite uridine; for xanthosine: metabolite xanthosine
P. falciparum = experiment: EC50 listed in S2 Table Metabolomics (used to set the concentration tested); type: cell-based; conditions: Plasmodium falciparum; EC50 used for Factor_XEC50 in metabolomics; read-out: EC50_nM

Structure (SMILES): O=[N+]([O-])c1ccc(C=NNc2nc3ccccc3[nH]2)cc1 [MMV666607]
- Acetyllysine [1]: -1.035
- N-acetyl-L-ornithine [1]: -1.151
- N-carbamoyl-L-aspartate [1]: 0.2298
- NADPH [1]: 4.216
- dAMP [1]: 0.3403
- dCMP [1]: 0.1583
- dTDP [1]: 0.005163
- dTMP [1]: -0.3628
- dTTP [1]: 0.4469
- dihydroorotate [1]: 0.1326
- orotate [1]: 0.05442
- DLH [1]: -0.8554
- DLS/SDL/SID [1]: -0.615
- PD [1]: -0.4537
- PEE [1]: -0.9074
- PVNF [1]: -1.15
- 3-phosphoglycerate [1]: 0.2233
- ADP-D-glucose [1]: 0.2125
- ATP [1]: 0.06188
- CDP [1]: -0.1249
- D-sedoheptulose-1/7-phosphate [1]: -0.1388
- FAD [1]: -0.1276
- GMP [1]: -0.06014
- NAD+ [1]: -0.1512
- NADP+ [1]: 0.1119
- Octoluse Bisphosphate [1]: -0.09651
- Pyroglutamic acid [1]: -0.1918
- UDP-D-glucose [1]: -0.06053
- UDP-D-glucuronate [1]: -0.006477
- UDP-N-acetyl-glucosamine [1]: -0.08493
- UDP [1]: -0.2957
- UMP [1]: -0.07591
- UTP [1]: 0.3053
- a-ketoglutarate [1]: -0.2127
- citrate/isocitrate [1]: -0.1765
- cytidine [1]: -0.4158
- dATP [1]: 0.1896
- dGMP/AMP [1]: 0.09335
- fumarate [1]: 0.008021
- glucose-1/6-phosphate [1]: -0.3879
- glycerate [1]: -0.4956
- guanine [1]: -0.1214
- guanosine [1]: 0.1402
- hypoxanthine [1]: -0.3554
- indole [1]: -0.1954
- inosine [1]: -0.3969
- 2_3-Diphosphoglyceric acid [1]: 0.1914
- 4-phosphopantothenate [1]: 0.07423
- 6-phospho-D-gluconate [1]: 0.02335
- FMN [1]: -0.06375
- IMP [1]: 0.01329
- Pyrophosphate [1]: 0.2379
- Sedoheptoluse bisphosphate [1]: 0.02366
- cyclic-AMP [1]: 0.0305
- glutathione disulfide [1]: 0.01063
- lactate [1]: -0.3072
- myo-inositol [1]: -0.4133
- nicotinate [1]: 0.09712
- ornithine [1]: -0.3198
- phosphoenolpyruvate [1]: 0.2853
- pyruvate [1]: -0.3236
- ribose-phosphate [1]: 0.1666
- sarcosine/alanine [1]: -0.06565
- sn-glycerol-3-phosphate [1]: -0.0116
- succinate/methylmalonic acid [1]: 0.01013
- uridine [1]: -0.4646
- xanthosine [1]: 0.06506
- EC50 (P. falciparum): 0.142 µM

Structure (SMILES): CCCc1cc(O)c2c3c(c(=O)oc2c1)CN(C)CC3 [MMV665841]
- Acetyllysine [1]: -2.612
- N-acetyl-L-ornithine [1]: -1.949
- N-carbamoyl-L-aspartate [1]: -0.955
- NADPH [1]: 0.07097
- dAMP [1]: -0.5338
- dCMP [1]: 0.378
- dTDP [1]: -0.09857
- dTMP [1]: -0.08494
- dTTP [1]: 0.3392
- dihydroorotate [1]: -0.7381
- orotate [1]: -0.6991
- DLH [1]: -2.223
- DLS/SDL/SID [1]: -2.0523
- PD [1]: -2.506
- PEE [1]: -2.465
- PVNF [1]: -2.267
- 3-phosphoglycerate [1]: 0.2411
- ADP-D-glucose [1]: 0.03562
- ATP [1]: 0.3706
- CDP [1]: -0.1497
- D-sedoheptulose-1/7-phosphate [1]: -0.0969
- FAD [1]: 0.4757
- GMP [1]: 0.7431
- NAD+ [1]: 0.1538
- NADP+ [1]: 0.3743
- Octoluse Bisphosphate [1]: -0.2246
- Pyroglutamic acid [1]: 0.8685
- UDP-D-glucose [1]: 0.1781
- UDP-D-glucuronate [1]: 0.2234
- UDP-N-acetyl-glucosamine [1]: 0.1163
- UDP [1]: -0.165
- UMP [1]: 0.01879
- UTP [1]: 0.1488
- a-ketoglutarate [1]: -1.017
- citrate/isocitrate [1]: -0.03416
- cytidine [1]: 0.6575
- dATP [1]: -0.1225
- dGMP/AMP [1]: -0.03336
- fumarate [1]: -0.991
- glucose-1/6-phosphate [1]: 0.02998
- glycerate [1]: -0.7467
- guanine [1]: -0.195
- guanosine [1]: -0.4835
- hypoxanthine [1]: 0.1991
- indole [1]: -0.2191
- inosine [1]: 0.006205
- 2_3-Diphosphoglyceric acid [1]: 0.1243
- 4-phosphopantothenate [1]: -0.4271
- 6-phospho-D-gluconate [1]: -0.03292
- FMN [1]: 0.1348
- IMP [1]: -0.4143
- Pyrophosphate [1]: 0.01603
- Sedoheptoluse bisphosphate [1]: -0.2052
- cyclic-AMP [1]: -0.23
- glutathione disulfide [1]: -0.3848
- lactate [1]: -0.3481
- myo-inositol [1]: -0.7715
- nicotinate [1]: -0.06082
- ornithine [1]: -0.04541
- phosphoenolpyruvate [1]: 0.2681
- pyruvate [1]: -0.1725
- ribose-phosphate [1]: -0.5158
- sarcosine/alanine [1]: -1.291
- sn-glycerol-3-phosphate [1]: -0.1021
- succinate/methylmalonic acid [1]: -0.1585
- uridine [1]: -0.2002
- xanthosine [1]: -0.28
- EC50 (P. falciparum): 0.146 µM
